A short description of assay [1]: Anti-inflammatory activity: oedema provoked by carragenin in the rat. The assay is classed as in vivo. To be noted: po, read-out: percentage inhibition of oedema; for inhibition in vivo at 64 mg/kg: 64 mg/kg orally; for inhibition in vivo at 128 mg/kg: 128 mg/kg orally; for inhibition in vivo at 256 mg/kg: 256 mg/kg orally; for inhibition in vivo at 512 mg/kg: 512 mg/kg orally. On the procedure:
The method used was as follows.
The anti-inflammatory activity was measured on oedema provoked by carragenin in the rat. Groups of six male rats each weighing 120 to 130 g received the compound under test orally in suspension in "tween 80", half the dose being given 2 hours before and the other half 1/2 hour before the subcutaneous plantar injection of 0.05 ml of a 1 % carragenin solution. The volume of the injected paw was measured by plethysmography at regular intervals. Table 1 below gives the percentage inhibition of the oedema with reference to untreated controls.

The nature of assay [2]: Analgesic activity: Siegmund's test (phenylbenzoquinone painful reactions). The assay is classed as in vivo. To be noted: Mus musculus, po, read-out: percentage inhibition of reactions; for inhibition in vivo at 64 mg/kg: 64 mg/kg orally; for inhibition in vivo at 128 mg/kg: 128 mg/kg orally; for inhibition in vivo at 256 mg/kg: 256 mg/kg orally; for inhibition in vivo at 512 mg/kg: 512 mg/kg orally; for inhibition in vivo at 32 mg/kg: 32 mg/kg orally. As for the experimental part:
This activity was measured by Siegmund's test in mice and Randall and Selitto's test in the rat.
Groups of six mice received the compound under test orally 1 hour before intraperitoneal injection of 0.2 ml of an 0.02% of solution of phenylbenzoquinone. The number of painful reactiors from the fifth to the tenth minute after the injection of phenylbenzoquinone was counted.

The nature of the next assay: Escape test. The class given is in vivo. The settings on record: Mus musculus, ip, 0.5 h, read-out: Percentage inhibition (number of attempts to escape); for change in vivo at 16 mg/kg: 16 mg/kg intraperitoneally; for change in vivo at 32 mg/kg: 32 mg/kg intraperitoneally; for change in vivo at 64 mg/kg: 64 mg/kg intraperitoneally; for change in vivo at 128 mg/kg: 128 mg/kg intraperitoneally; for change in vivo at 256 mg/kg: 256 mg/kg intraperitoneally; for change in vivo at 8 mg/kg: 8 mg/kg intraperitoneally. On the procedure:
Groups of 8 mice were placed in sub groups of 4 in an enclosure from which they could escape by an inclined plane. The number of attempts to escape during 5 minutes were counted half an hour after intraperitoneal administration of the compound under test.

Assay [3] is described as follows: Analgesic activity: Randall and Selitto's test (beer yeast paw, pain threshold). The class given is in vivo, rat. As for the experimental part:
This activity was measured by Siegmund's test in mice and Randall and Selitto's test in the rat. Groups of ten male rats each weight 120 to 140 g received by subcutaneous plantar injection 0.05 ml of a 5% aqueous suspension of beer yeast. 2 Hours after this treatment they received the compound under test orally and 1 hour after administration of this compound the paw which had been injected and the contralateral paw were subjected to increasing pressure. The appearance of the pain threshold was noted.

Assay [4] is described as follows: Antagonism of convulsions produced by cardiazole. The class given is in vivo. To be noted: Mus musculus, ip, read-out: Percentage inhibition of tonic convulsions; for inhibition in vivo at 16 mg/kg: 16 mg/kg intraperitoneally; for inhibition in vivo at 32 mg/kg: 32 mg/kg intraperitoneally; for inhibition in vivo at 64 mg/kg: 64 mg/kg intraperitoneally; for inhibition in vivo at 128 mg/kg: 128 mg/kg intraperitoneally; for inhibition in vivo at 4 mg/kg: 4 mg/kg intraperitoneally; for inhibition in vivo at 8 mg/kg: 8 mg/kg intraperitoneally; for inhibition in vivo at 256 mg/kg: 256 mg/kg intraperitoneally. As for the experimental part:
Groups of 6 mice received the compound under test 30 minutes before introperitoneal injection of 160 mg/kg of cardiazole. The action of the compound under test on the tonic convulsion phase was observed.

The nature of assay [5]: Potentiation of stereotypes by amphetamine. The assay is classed as in vivo, rat. To be noted: 5 mg/kg dexamphetamine sulphate. On the procedure: The compound under test was administered to groups of 5 rats intraperitoneally. Thirty minutes afterwards, 5 mg/kg of dexamphetamine sulphate was injected intraperitoneally. The duration of the phenomenon is counted at regular intervals from 0 to 4 and the counts are added up.

Where [6] appears, read: without yeast, 128 mg/kg orally.
Setting [7] is: without yeast, 256 mg/kg orally.

From patent publication US3959272A, “Aminoalkyl esters of 2-anilino-nicotinic acids” (Societe Anonyme dite: Hexachime, priority 1972, dated 1976) come the findings set out here.

As to `Cc1cccc(C)c1Nc1ncccc1C(=O)OCCN1CCOCC1` [Example 6, β-Morpholino ethyl 2-(2,6-dimethylanilino) nicotinate], in assay [1], the inhibition in vivo at 64 mg/kg is 0%, the inhibition in vivo at 128 mg/kg turned out to be 13%, the inhibition in vivo at 256 mg/kg is 36% and the inhibition in vivo at 512 mg/kg amounted to 80%. Further, in assay [2], the inhibition in vivo at 64 mg/kg came to 23%, the inhibition in vivo at 128 mg/kg is 39%, the inhibition in vivo at 256 mg/kg turned out to be 69% and the inhibition in vivo at 512 mg/kg stood at 100%. Further, in the assay “Escape test”, the change in vivo at 16 mg/kg was -13%, the change in vivo at 32 mg/kg was -20%, the change in vivo at 64 mg/kg was -35% and the change in vivo at 128 mg/kg is -74%. Also, the change in vivo at 256 mg/kg in the assay “Escape test” is -100%.
As for `Cc1cccc(Nc2ncccc2C(=O)OCCN2CCN(C)CC2)c1C` [Example 4, β-(N-methylpiperazino)ethyl nixylate], the results for the inhibition in vivo at 64 mg/kg in assay [1], in assay [2] and in assay [4] were 0%, 33% and 58%, respectively. Further, the inhibition in vivo at 128 mg/kg in assay [1] was found to be 50%; in assay [2], 69%; in assay [4] it was 91%. Besides, the inhibition in vivo at 256 mg/kg turned out to be 62% in assay [1] and 84% in assay [2]. Besides, the inhibition in vivo at 32 mg/kg in assay [2] came to 8%; in assay [4] it was 0%. Moreover, the “percentage increase of pain threshold” value is 0% in assay [3] (with yeast, 16 mg/kg orally); 31% in assay [3] (with yeast, 32 mg/kg orally); 27% in assay [3] (with yeast, 64 mg/kg orally); 61% in assay [3] (with yeast, 128 mg/kg orally); 16% in assay [3] (with yeast, 256 mg/kg orally); 8% in assay [3] (without yeast, 16 mg/kg orally). The “percentage increase of pain threshold” value was 30% in assay [3] (without yeast, 32 mg/kg orally); 46% in assay [3] (without yeast, 64 mg/kg orally); 38% in assay [3] (setting [6]); 10% in assay [3] (setting [7]). The change in vivo at 8 mg/kg in the assay “Escape test” came to 2%. In addition, the change in vivo at 16 mg/kg in the assay “Escape test” was -11%. Also, the change in vivo at 32 mg/kg in the assay “Escape test” was -37%. Besides, the change in vivo at 64 mg/kg in “Escape test” was -61%. For the same compound, the change in vivo at 128 mg/kg in “Escape test” was -95%. Also, the inhibition in vivo at 16 mg/kg in assay [4] amounted to 0%.
Regarding `Cc1cccc(Nc2ncccc2C(=O)OCCN2CCCCC2)c1C` [Example 2, β-Piperidino ethyl nixylate], in assay [1], the inhibition in vivo at 64 mg/kg was 6%, the inhibition in vivo at 128 mg/kg was 42% and the inhibition in vivo at 256 mg/kg amounted to 70%. In assay [2], the inhibition in vivo at 32 mg/kg is 24%, the inhibition in vivo at 64 mg/kg amounted to 48% and the inhibition in vivo at 128 mg/kg was determined as 69%. Moreover, the “percentage increase of pain threshold” value in assay [3] (with yeast, 64 mg/kg orally) was determined as 5%. In assay [3] (with yeast, 128 mg/kg orally), the “percentage increase of pain threshold” value is 30%. The “percentage increase of pain threshold” value in assay [3] (with yeast, 256 mg/kg orally) is reported as 87%. Also, the “percentage increase of pain threshold” value in assay [3] (without yeast, 64 mg/kg orally) is 0%. Moreover, in assay [3] (setting [6]), the “percentage increase of pain threshold” value came out at 52%. The “percentage increase of pain threshold” value in assay [3] (setting [7]) came to 33%. In “Escape test”, the change in vivo at 8 mg/kg was 6%, the change in vivo at 16 mg/kg was -21%, the change in vivo at 32 mg/kg is -43% and the change in vivo at 64 mg/kg was -80%. Besides, in “Escape test”, the change in vivo at 128 mg/kg was -100%. Besides, in assay [4], the inhibition in vivo at 4 mg/kg was 0%, the inhibition in vivo at 8 mg/kg was found to be 16%, the inhibition in vivo at 16 mg/kg came to 5% and the inhibition in vivo at 32 mg/kg worked out at 22%. In addition, in assay [4], the inhibition in vivo at 64 mg/kg came out at 72% and the inhibition in vivo at 128 mg/kg came out at 100%.
For `O=C(OCCN1CCOCC1)c1cccnc1Nc1ccccc1` [Example 5, β-Morpholino ethyl 2-anilino nicotinate], in assay [1], the inhibition in vivo at 128 mg/kg came out at 0%, the inhibition in vivo at 256 mg/kg was 17% and the inhibition in vivo at 512 mg/kg turned out to be 71%. Also, in assay [2], the inhibition in vivo at 32 mg/kg turned out to be 16%, the inhibition in vivo at 64 mg/kg amounted to 38%, the inhibition in vivo at 128 mg/kg is 57% and the inhibition in vivo at 256 mg/kg was determined as 83%. In addition, in the assay “Escape test”, the change in vivo at 16 mg/kg is -12%, the change in vivo at 32 mg/kg was -5%, the change in vivo at 64 mg/kg is -23% and the change in vivo at 128 mg/kg is -20%. In addition, the change in vivo at 256 mg/kg in the assay “Escape test” is -78%. In addition, in assay [4], the inhibition in vivo at 4 mg/kg was 0%, the inhibition in vivo at 8 mg/kg amounted to 16%, the inhibition in vivo at 16 mg/kg was found to be 33% and the inhibition in vivo at 32 mg/kg was determined as 33%. Also, in assay [4], the inhibition in vivo at 64 mg/kg came to 16%, the inhibition in vivo at 128 mg/kg was 33% and the inhibition in vivo at 256 mg/kg was found to be 100%. In addition, in assay [5] (16 mg/kg intraperitoneally), the “Sum of the counts (stereotypes)” value was 14. In assay [5] (64 mg/kg intraperitoneally), the “Sum of the counts (stereotypes)” value is given as 22. Besides, the “Sum of the counts (stereotypes)” value in assay [5] (256 mg/kg intraperitoneally) is reported as 44.
`Cc1ccc(Nc2ncccc2C(=O)OCCN2CCOCC2)cc1Cl` [Example 7, β-Morpholino ethyl 2-(3-chloro-4-methylanilino) nicotinate]: in assay [1], the inhibition in vivo at 128 mg/kg was 2%, the inhibition in vivo at 256 mg/kg stood at 29% and the inhibition in vivo at 512 mg/kg amounted to 53%. For the same compound, in assay [2], the inhibition in vivo at 32 mg/kg came out at 14%, the inhibition in vivo at 64 mg/kg stood at 33%, the inhibition in vivo at 128 mg/kg stood at 55% and the inhibition in vivo at 256 mg/kg amounted to 55%. Besides, the inhibition in vivo at 512 mg/kg in assay [2] was found to be 77%. In “Escape test”, the change in vivo at 16 mg/kg is -48%, the change in vivo at 64 mg/kg was -62% and the change in vivo at 256 mg/kg was -96%. In assay [4], the inhibition in vivo at 64 mg/kg is 0%, the inhibition in vivo at 128 mg/kg was determined as 9% and the inhibition in vivo at 256 mg/kg turned out to be 59%.
Regarding `Cc1ccc(Cl)cc1Nc1ncccc1C(=O)OCCN1CCOCC1` [Example 8, β-Morpholino ethyl 2-(2-methyl-5-chloroanilino) nicotinate], in assay [1], the inhibition in vivo at 64 mg/kg is 0% and the inhibition in vivo at 256 mg/kg came out at 36%. Besides, in assay [2], the inhibition in vivo at 256 mg/kg was 18% and the inhibition in vivo at 512 mg/kg was determined as 74%. In the assay “Escape test”, the change in vivo at 32 mg/kg is -25%, the change in vivo at 64 mg/kg was -52%, the change in vivo at 128 mg/kg was -62% and the change in vivo at 256 mg/kg is -83%. For the same compound, in assay [4], the inhibition in vivo at 32 mg/kg is 0%, the inhibition in vivo at 64 mg/kg turned out to be 17%, the inhibition in vivo at 128 mg/kg was 33% and the inhibition in vivo at 256 mg/kg was 67%. The inhibition in vivo at 512 mg/kg in assay [4] (512 mg/kg intraperitoneally) was 100%. In addition, the “Sum of the counts (stereotypes)” value in assay [5] (32 mg/kg intraperitoneally) turned out to be 89. The “Sum of the counts (stereotypes)” value in assay [5] (64 mg/kg intraperitoneally) is listed as 87. For the same compound, the “Sum of the counts (stereotypes)” value in assay [5] (128 mg/kg intraperitoneally) turned out to be 161. Also, the “Sum of the counts (stereotypes)” value in assay [5] (256 mg/kg intraperitoneally) was determined as 195.
